Data from US20090156577A1, “7-AMINO ALKYLIDENYL-HETEROCYCLIC QUINOLONES AND NAPHTHYRIDONES” (priority 2004, published 2009).
Values after ≈ are worked out from the molar mass of the structure shown. Like-named read-outs stand apart in the source and are kept apart here.

Test system: pathogenic bacteria
Experiment: MIC by microdilution broth method (NCCLS M7-A4), in vitro antibacterial activity
Format: cell-based
How it was run: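 Broth microdilution per NCCLS M7-A4: two-fold serial dilutions in cation-adjusted Mueller-Hinton broth, inoculum about 5×10^4 CFU/well. Trays incubated 16–20 h at 35 °C. MIC read by comparing growth against no-compound growth controls.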

[1] = Staphylococcus aureus, Organism A: Staphylococcus aureus OC4172, read-out: MIC
[2] = Streptococcus pneumoniae, ATCC49619, Organism E: Streptococcus pneumoniae ATCC 49619, read-out: MIC
[3] = Streptococcus pneumoniae, Organism B: fluoroquinolone-resistant clinical isolate of Streptococcus pneumoniae (QRDR amino acid substitutions)
[4] = Streptococcus pneumoniae, Organism C: fluoroquinolone-resistant clinical isolate of Streptococcus pneumoniae (QRDR amino acid substitutions)
[5] = Streptococcus pneumoniae, Organism D: fluoroquinolone-resistant clinical isolate of Streptococcus pneumoniae (QRDR amino acid substitutions)

Row | SMILES | MIC [1] [µg/mL] | MIC [2] [µg/mL] | MIC [3] [µg/mL] | MIC [4] [µg/mL] | MIC [5] [µg/mL]
1 | CC(CN)=C1CN(c2cc3c(c(C)c2F)c(=O)c(C(=O)O)cn3C2CC2)C1 [Compound 367, 7-[3-(2-Amino-1-methyl-ethylidene)-azetidin-1-yl]-1-cyclopropyl-6-fluoro-5-methyl-4-oxo-1,4-dihydro-quinoline-3-carboxylic Acid] | ≤ 0.015 | 0.12 (≈ 0.323 µM) | 0.25 (≈ 0.673 µM) | 1 (≈ 2.69 µM) | 1 (≈ 2.69 µM)
2 | COc1c(N2CC(=C(C)CN)C2)c(F)cc2c(=O)c(C(=O)O)cn([C@@H]3C[C@@H]3F)c12 [Compound 368, 7-[3-(2-Amino-1-methyl-ethylidene)-azetidin-1-yl]-6-fluoro-(1R,2S)-1-(2-fluoro-cyclopropyl)-8-methoxy-4-oxo-1,4-dihydro-quinoline-3-carboxylic Acid] | 0.25 (≈ 0.617 µM) | 1 (≈ 2.47 µM) | 8 (≈ 19.7 µM) | > 16 | 8 (≈ 19.7 µM)
3 | NCC(Cl)=C1CCN(c2c(F)c(N)c3c(=O)c(C(=O)O)cn(C4CC4)c3c2F)CC1 [Compound 369, 5-Amino-7-[4-(2-amino-1-chloro-ethylidene)-piperidin-1-yl]-1-cyclopropyl-6,8-difluoro-4-oxo-1,4-dihydro-quinoline-3-carboxylic Acid] | 0.03 (≈ 0.0684 µM) | 0.03 (≈ 0.0684 µM) | 0.06 (≈ 0.137 µM) | 0.5 (≈ 1.14 µM) | 0.12 (≈ 0.273 µM)
4 | NCC(Cl)=C1CCN(c2c(F)cc3c(=O)c(C(=O)O)cn(C4CC4)c3c2OCF)CC1 [Compound 370, 7-[4-(2-Amino-1-chloro-ethylidene)-piperidin-1-yl]-1-cyclopropyl-6-fluoro-8-fluoromethoxy-4-oxo-1,4-dihydro-quinoline-3-carboxylic Acid] | 2 (≈ 4.41 µM) | 8 (≈ 17.6 µM) | > 16 | > 16 | 16 (≈ 35.3 µM)
5 | Cc1c(N2CCC(=C(Cl)CN)CC2)c(F)cc2c(=O)c(C(=O)O)cn(C3CC3)c12 [Compound 371, 7-[4-(2-Amino-1-chloro-ethylidene)-piperidin-1-yl]-1-cyclopropyl-6-fluoro-8-methyl-4-oxo-1,4-dihydro-quinoline-3-carboxylic Acid] | ≤ 0.015 | 0.03 (≈ 0.0714 µM) | 0.06 (≈ 0.143 µM) | 0.12 (≈ 0.286 µM) | 0.12 (≈ 0.286 µM)
6 | C[C@H]1COc2c(N3CCC/C(=C(/Cl)CN)CC3)c(F)cc3c(=O)c(C(=O)O)cn1c23 [Compound 372, (3S)-9-[(Z)-4-(2-Amino-1-chloro-ethylidene)-azepan-1-yl]-8-fluoro-3-methyl-6-oxo-2,3-dihydro-6H-1-oxa-3a-aza-phenalene-5-carboxylic Acid] | 0.5 (≈ 1.15 µM) | 2 (≈ 4.59 µM) |  | 16 (≈ 36.7 µM) | 8 (≈ 18.4 µM)
7 | C[C@H]1COc2c(N3CCC/C(=C(\Cl)CN)CC3)c(F)cc3c(=O)c(C(=O)O)cn1c23 [Compound 373, (3S)-9-[(E)-4-(2-Amino-1-chloro-ethylidene)-azepan-1-yl]-8-fluoro-3-methyl-6-oxo-2,3-dihydro-6H-1-oxa-3a-aza-phenalene-5-carboxylic Acid] | 0.06 (≈ 0.138 µM) | 0.12 (≈ 0.275 µM) | 0.5 (≈ 1.15 µM) | 2 (≈ 4.59 µM) | 1 (≈ 2.29 µM)
8 | NC/C(F)=C1\CCCN(c2nc3c(cc2F)c(=O)c(C(=O)O)cn3C2CC2)C1 [Compound 374, (Z)-7-[3-(2-Amino-1-fluoro-ethylidene)-piperidin-1-yl]-1-cyclopropyl-6-fluoro-4-oxo-1,4-dihydro-[1,8]naphthyridine-3-carboxylic acid] | 0.06 (≈ 0.154 µM) | 0.5 (≈ 1.28 µM) | 2 (≈ 5.12 µM) | 16 (≈ 41 µM) | 4 (≈ 10.2 µM)
9 | NC/C=C1/CCCN(c2nc3c(cc2F)c(=O)c(C(=O)O)cn3C2CC2)C1 [Compound 375, (Z)-7-[3-(2-Amino-ethylidene)-piperidin-1-yl]-1-cyclopropyl-6-fluoro-4-oxo-1,4-dihydro-[1,8]naphthyridine-3-carboxylic acid] | 0.12 (≈ 0.322 µM) | 8 (≈ 21.5 µM) | > 16 | > 16 | > 16
10 | NC/C=C1\CCCN(c2nc3c(cc2F)c(=O)c(C(=O)O)cn3C2CC2)C1 [Compound 376, (E)-7-[3-(2-Amino-ethylidene)-piperidin-1-yl]-1-cyclopropyl-6-fluoro-4-oxo-1,4-dihydro-[1,8]naphthyridine-3-carboxylic acid] | 0.25 (≈ 0.671 µM) | 1 (≈ 2.69 µM) |  | > 16 | > 16
11 | C/C(CN)=C1/CCCN(c2nc3c(cc2F)c(=O)c(C(=O)O)cn3C2CC2)C1 [Compound 377, (E)-7-[3-(2-Amino-1-methyl-ethylidene)-piperidin-1-yl]-1-cyclopropyl-6-fluoro-4-oxo-1,4-dihydro-[1,8]naphthyridine-3-carboxylic acid] | 0.5 (≈ 1.29 µM) | 4 (≈ 10.4 µM) | 16 (≈ 41.4 µM) | 8 (≈ 20.7 µM) | > 16
12 | NC/C(Cl)=C1\CCCN(c2nc3c(cc2F)c(=O)c(C(=O)O)cn3C2CC2)CC1 [Compound 378, (Z)-7-[4-(2-Amino-1-chloro-ethylidene)-azepan-1-yl]-1-cyclopropyl-6-fluoro-4-oxo-1,4-dihydro-[1,8]naphthyridine-3-carboxylic acid] | 0.25 (≈ 0.594 µM) | 1 (≈ 2.38 µM) |  | 4 (≈ 9.5 µM) | 16 (≈ 38 µM)
13 | NC/C(Cl)=C1/CCCN(c2nc3c(cc2F)c(=O)c(C(=O)O)cn3C2CC2)CC1 [Compound 379, (E)-7-[4-(2-Amino-1-chloro-ethylidene)-azepan-1-yl]-1-cyclopropyl-6-fluoro-4-oxo-1,4-dihydro-[1,8]naphthyridine-3-carboxylic acid] | 0.25 (≈ 0.594 µM) | 2 (≈ 4.75 µM) | 1 (≈ 2.38 µM) | 8 (≈ 19 µM) | 16 (≈ 38 µM)
14 | C/C(CN)=C1\CCCN(c2nc3c(cc2F)c(=O)c(C(=O)O)cn3-c2ccc(F)cc2F)C1 [Compound 380, (Z)-7-[3-(2-Amino-1-methyl-ethylidene)-piperidin-1-yl]-1-(2,4-difluoro-phenyl)-6-fluoro-4-oxo-1,4-dihydro-[1,8]naphthyridine-3-carboxylic acid] | 0.12 (≈ 0.262 µM) | 0.5 (≈ 1.09 µM) | 8 (≈ 17.5 µM) | 8 (≈ 17.5 µM) | 4 (≈ 8.73 µM)
15 | C/C(CN)=C1/CCCN(c2nc3c(cc2F)c(=O)c(C(=O)O)cn3-c2ccc(F)cc2F)C1 [Compound 381, (E)-7-[3-(2-Amino-1-methyl-ethylidene)-piperidin-1-yl]-1-(2,4-difluoro-phenyl)-6-fluoro-4-oxo-1,4-dihydro-[1,8]naphthyridine-3-carboxylic acid] | 0.5 (≈ 1.09 µM) | 4 (≈ 8.73 µM) | 4 (≈ 8.73 µM) | > 16 | > 16
16 | NC/C(F)=C1\CCCN(c2cc3c(cc2F)c(=O)c(C(=O)O)cn3C2CC2)C1 [Compound 382, (Z)-7-[3-(2-Amino-1-fluoro-ethylidene)-piperidin-1-yl]-1-cyclopropyl-6-fluoro-4-oxo-1,4-dihydro-quinoline-3-carboxylic acid] | 0.5 (≈ 1.28 µM) | 2 (≈ 5.14 µM) | 8 (≈ 20.5 µM) | > 16 | 16 (≈ 41.1 µM)
17 | NC/C=C1/CCCN(c2cc3c(cc2F)c(=O)c(C(=O)O)cn3C2CC2)C1 [Compound 383, (Z)-7-[3-(2-Amino-ethylidene)-piperidin-1-yl]-1-cyclopropyl-6-fluoro-4-oxo-1,4-dihydro-quinoline-3-carboxylic acid] | 0.12 (≈ 0.323 µM) | 1 (≈ 2.69 µM) | 8 (≈ 21.5 µM) | > 16 | > 16
